# Measured values: PMC11927960, “Multiparameter ranking of carbazoles for anti-trypanosome lead discovery” (Frontiers in drug discovery, 2024)
# Where two headings read alike, the source gives them in different places.
# Legend:
# [1] = system: protein synthesis in Trypanosoma brucei; assay: Protein synthesis (HPG incorporation); format: cell-based; settings: for Protein Synthesis affected: DTC50 as printed in Table S3; for Effect on protein synthesis: DTC90; for Residual Translation: DTC90 of curaxin 15 min, then 60 min HPG, 1 minus inhibition vs DMSO
# Description: FIGURE 3 Effect of curaxins on protein synthesis in Trypanosoma brucei: T. b. brucei (5 × 10^5/mL) was treated with DMSO (D: 0.1%), DTC90 of CBL0174 ([…]), or CBL0187 (600 nM) for 15 min, followed by 60-min incubation with L-Homopropargylglycine (HPG; 4 μM). Incorporated HPG was clicked to azide-Alexa Fluor-488. […] (A) Proteins were transferred to the PVDF membrane and stained for total protein (using LI-COR® Revert™ 700 Total Protein Stain). (B) The membrane was blocked with Intercept® (PBS) blocking buffer and reacted with azide-PEG3-biotin conjugate that was detected with Streptavidin IRDye® 800CW (1: 2500 dilution). (C) Quantitation of HPG signal normalized to total protein loaded per lane. Statistical significance of differences in mean total HPG incorporation (normalized to total protein) was determined with Student’s t-test.
# Mid-logarithmic phase trypanosomes were rinsed and resuspended (5×10^5 cells/mL) in methionine-free RPMI supplemented with 10% fetal bovine serum (FBS). Cells were treated with DTC25 or DTC90 concentrations of CBL0174 or CBL0187 for 15 min, followed by 1-h incubation with 4 μM (final concentration) L-Homopropargylglycine (HPG) (Cayman Chemical). Cells were washed with PBS-G (PBS containing 10 mM glucose), pelleted, and resuspended (~5 × 10^6 cells) in 50 μL of permeabilization buffer (50 mM HEPES pH 7.4, 0.025% NP-40) on ice for 30 min. The pellet was mixed with 50 μL “Click-iT reaction” cocktail (20 mM Tris buffer, pH 7.4, 5 mM CuSO4, 300 mM ascorbic acid, 140 mM NaCl, and 17.5 μM azide-PEG-biotin) at room temperature for 1 h. […] HPG-labeled proteins were detected with Streptavidin IRDye® 800CW (1: 2500) and visualized on a Li-Cor® Odyssey CLx near-infrared fluorescence imaging system ([Sanz-Rodriguez et al., 2022]).
# [2] = system: Trypanosoma brucei Lister427; assay: Recovery of trypanosome proliferation after 6-h exposure to Cmax or AUC0–6h amounts in 50% serum; format: cell-based; settings: for Trypanocidal or cytostatic outcome: 6-h treatment with Cmax equivalents
# Description: Recovery of trypanosome proliferation after a 6-h exposure to curaxins
# The in vivo plasma exposure of trypanosomes to drug is expressed as area under the curve (AUC) in pharmacokinetic analysis. Theoretically, the same drug exposures in vitro and in vivo will be achieved within 6 h if the in vitro compound concentration × 6 h value was equal to in vivo AUC0–6h. […] AUC0–6h unbound is equal to the AUC0–6h × fraction of drug unbound to plasma (PFU) (Table 4).
# Trypanosomes (1 × 10^5/mL) were treated with a concentration equivalent of the AUC0–6h unbound (Table 4) of each compound. After 6 h, cells were washed and resuspended (1 × 10^5 cells/mL) in drug-free medium. […] Proliferation recovery time was recorded post drug wash-off as described above.
# [3] = Plasma pharmacokinetics after single oral dose; format: in vivo, Swiss Webster mice; settings: Swiss Webster, mouse; for AUC(0-t): female mice values of Table 3, quoted in μM, read-out: AUC0–6h
# Description: The plasma concentration and tissue distribution of drugs were determined by Absorption Systems. […] Blood and brain samples were obtained at 1, 2, 4, and 6 h post-dosing, and plasma and brain concentrations of the drug were determined using LC-MS/MS. Stock standards for calibration were prepared in a matrix comprising equal volumes of water and mouse blood containing K2-EDTA as an anticoagulant. Working solutions were prepared in 50:50 acetonitrile–water and added to the matrix to final concentrations of 1,000, 500, 100, 50.0, 10.0, 5.00, 1.00, and 0.500 ng/mL for all compounds. Pharmacokinetic parameters were determined using Phoenix WinNonlin (v8.0) software with sparse sampling. Maximum plasma concentration (Cmax) and the time to reach maximum plasma concentration (tmax) were determined from the four data points. The area under the time concentration curve (AUClast) was calculated using the linear trapezoidal rule with calculation to a 6-h data point. Plasma half-life (t1/2) was calculated from 0.693/slope of the terminal elimination phase. Samples below the limit of detection (0.500 ng/mL) were treated as 0.
# T. brucei Lister427 = assay: Delayed trypanocidal assay (6 h exposure, wash-off); format: cell-based, Trypanosoma brucei; settings: for DTC25 (Figure 1) / DTC50 (Figure 1) / DTC90 (Figure 1): 5 × 10^5/mL, 6 h, wash, 24 h drug-free, unit not given; for DTC50 (concentration causing 50% cidality): 6-h treatment and wash-off
# Description: Trypanosomes were washed, enumerated with a Coulter Counter, and transferred into a drug-free HMI-9 medium for 24 h in a 24-well plate (1 × 10^5 cells/mL). After 24 h, cells were enumerated with a Coulter counter (see flow-chart). Data obtained were analyzed using GraphPad Prism to determine DTC25, DTC50, and DTC90 values.
# Delayed trypanocidal assay
# Mid-logarithmic growth-phase T. b. Lister427 were inoculated into HMI-9 medium (5 × 10^5 cell/mL). Cells were incubated with either 0.1% DMSO (vehicle) or serial dilutions of drug in 24-well plates for 6 h at 37 °C/5% CO2, following which trypanosomes were pelleted (3,000 g, 5 min), rinsed with drug-free HMI-9 medium, and cells enumerated with a Coulter counter. Trypanosomes were then inoculated at 1 × 10^5 cells/mL in 24-well-plates or 384-well plates and cultured for 24 h, after which trypanosomes were checked for viability with a hemocytometer and enumerated with a Coulter counter. Each experiment was performed thrice, and non-linear regression graphs plotted with GraphPad Prism were used to obtain DTC50 values ([Bachovchin et al., 2019]).
# [4] = 6-h treatment with Cmax amount (CBL0137 1.85, CBL0174 1.04, CBL0187 0.72 μM), 50% serum, NR = no recovery 84 h after wash-off
# [5] = 6 h treatment at 5 × 10^5/mL, wash-off, survival tracked 24 h
SMILES,Protein Synthesis affected [1],Effect on protein synthesis [1],Residual Translation [1],Latency of proliferation [2] [h],"Latency of proliferation [2, 4] [h]",Trypanocidal or cytostatic outcome ([2]; 50% serum),AUC(0-t) [3] [µM·h],Tmax ([3]; female) [h],half-life ([3]; female) [h],Tmax ([3]; male) [h],half-life ([3]; male) [h],DTC25 (Figure 1) (T. brucei Lister427),DTC50 (Figure 1) (T. brucei Lister427),DTC90 (Figure 1) (T. brucei Lister427),DTC50 (concentration causing 50% cidality) (T. brucei Lister427) [µM],DTC50 T. brucei Lister427 (T. brucei Lister427; [5]) [nM],DTC90 T. brucei Lister427 (T. brucei Lister427; [5]) [nM],"Time to resumption of proliferation (before subtracting 18 h of control) ([2]; 6-h treatment with Cmax equivalent, 50% serum) [h]",DTC25 T. brucei Lister427 (T. brucei Lister427; [5]) [nM]
"CC(=O)c1cc2c3cc(C(C)=O)c(O)cc3n(CCCN(C)C)c2cc1O [CBL0174, 1-[6-acetyl-9-[3-(dimethylamino)propyl]-2,7-dihydroxy-carbazol-3-yl]ethanone]",No,did not prevent mRNA translation,0.94,66,66,cytostatic,3.14 ± 0.25,1,3.61,1,4.33,48,110,600,0.11,110,600,–,–
"CC(=O)c1cc2c3cc(C(C)=O)c(O)cc3n(CCNC(C)C)c2cc1O [CBL0187, 1-[6-acetyl-2,7-dihydroxy-9-[2-(isopropylamino)ethyl]carbazol-3-yl]ethanone]",No,inhibited protein synthesis,0.72,30,6,not trypanocidal,2.95 ± 0.18,1.5 ± 0.7,> 6,2,> 6,54,110,550,0.11,110,550,24,54
